Test results reported in publication PMC11277992, “New Zosteropenillines and Pallidopenillines from the Seagrass-Derived Fungus Penicillium yezoense KMM 4679” (Marine Drugs, 2024).

Tests used:
Candida albicans KMM 455 = assay: Antimicrobial activity, microbial growth in broth (OD620); assay type: cell-based; settings: Candida albicans, KMM455; compound at 100 µM; read-out: Inhibition of Microbial Growth, % of Control, C. albicans
Procedure: (§1) The yeast-like fungus Candida albicans KMM 455 and bacterial strains Staphylococcus aureus ATCC 21027 and Escherichia coli VKPM (B-7935) (Collection of Marine Microorganisms PIBOC FEB RAS) were cultured on solid-medium Mueller–Hinton broth with agar (16.0 g/L) in a Petri dish at 37 °C for 24 h. The assays were performed in 96-well microplates in an appropriate Mueller–Hinton broth. Each well contained 90 µL of a bacterial or yeast-like fungal suspension (10^6 CFU/mL). Then, 10 µL was added of a compound diluted at concentrations from 1.5 µM to 100.0 µM using twofold dilution (DMSO concentration < 1%). Culture plates were incubated overnight at 37 °C, and the OD620 was measured using a Multiskan FC spectrophotometer (Thermo Scientific Inc., Beverly, MA, USA). The antibiotic gentamicin and antifungal agent nitrofungin were used as positive controls at 1 mg/mL; 1% DMSO in PBS served as a negative control. Examination was performed twice and in triplicate. The results were calculated as a percentage of the control data using SigmaPlot 14.0 software.

[1] = tested on: Escherichia coli VKPM (B-7935); assay: as above; assay type: cell-based; settings: compound at 100 µM, read-out: Inhibition of Microbial Growth, % of Control, E. coli
Procedure: as §1

[2] = tested on: Staphylococcus aureus ATCC 21027; assay: as above; assay type: cell-based; settings: ATCC21027, compound at 100 µM, read-out: Inhibition of Microbial Growth, % of Control, S. aureus
Procedure: as §1

[3] = tested on: normal human kidney cells; assay: Cytotoxic activity (MTT assay); assay type: cell-based; settings: 100 µM, 24 h
Procedure: (§2) The influence of compounds 1, 2 and 4–14 on the viability of normal human kidney […] cells, as well as human prostate PC-3, cervical HeLa and breast MCF-7 cancer cells, was measured using the MTT assay after 24 h of treatment.
(§3) The human prostate cancer cells PC-3 and CRL-1435 and the human embryonic kidney cells HEK-293 and CRL-1573TM were purchased from the American Type Culture Collection (ATCC; Manassas, VA, USA). PC-3 and HEK-293 cells were cultured in DMEM medium containing 10% fetal bovine serum (Biolot, St. Petersburg, Russia) and 1% penicillin/streptomycin (Biolot, St. Petersburg, Russia) at 37 °C in a humidified atmosphere with 5% (v/v) CO2. The cells were incubated in cultural flasks until sub-confluent (~80%).
(§4) PC-3 cells (5 × 10^3 cells/well) and HEK 293 cells (8 × 10^3 cells/well) were seeded in a 96-well plate and incubated overnight. Then, compounds were added at concentrations of 1–100 μM and incubated for another 24 h. Cell viability was then determined by the MTT (3-(4,5-dimethylthiazol-2-yl)-2,5-diphenyltetrazolium bromide) method according to the manufacturer’s instructions (Sigma-Aldrich, St. Louis, MO, USA). The absorbance of the converted formazan was measured using a Multiskan FC microplate photometer (Thermo Scientific, Waltham, MA, USA) at λ = 570 nm. The results are presented as percentages of the control data.

[4] = tested on: human prostate PC-3 cancer cells; assay: Cytotoxic activity (MTT assay); assay type: cell-based; settings: 100 µM, 24 h, MTT
Procedure: as §3
as §4, with “Then, compounds were added at concentrations of 1–100 μM and incubated for another 24 h.” left out

[5] = tested on: cervical HeLa cancer cells; assay: Cytotoxic activity (MTT assay); assay type: cell-based, human; settings: 24 h; for Cell Viability, % of Control, HeLa: 100 µM, MTT; for IC50: Homo sapiens, HeLa, read-out: IC50, HeLa cell viability
[6] = tested on: breast MCF-7 cancer cells; assay: Cytotoxic activity (MTT assay); assay type: cell-based, human; settings: 100 µM, 24 h, MTT
Procedure: as §2
as §4, with “Then, compounds were added at concentrations of 1–100 μM and incubated for another 24 h.” left out

[7] = tested on: CoCl2-treated HEK-293 cells; assay: Lipid peroxidation level (MitoCLox) in CoCl2-treated cells; assay type: cell-based, human; settings: MitoCLox fluorescence dye
Procedure: The fluorescence probe MitoCLox (Lumiprobe, Moscow, Russia) was used for the detection of the lipid peroxidation level in CoCl2-treated cells. It was added in the cells for 1 h at a concentration of 200 nM. After 1 h, the cells were washed with PBS and fluorescence was measured in ratiometric mode with λem = 520/590 nm using a PHERAStar FS plate reader (BMG Labtech, Offenburg, Germany). The data were processed with MARS Data Analysis v. 3.01R2 (BMG Labtech, Offenburg, Germany) and calculated as a 520/590 ratio.

MCF-7 cells = assay: Drug combination study with doxorubicin (MTT); assay type: cell-based, human; settings: 24 h

Structure (SMILES) | inhibition of growth at 100 µM (Candida albicans KMM 455) [%] | inhibition of growth at 100 µM [1] [%] | inhibition of growth at 100 µM [2] [%] | Cell Viability, % of Control, HEK-298 [3] | Cell Viability, % of Control, PC-3 [4] | Cell Viability, % of Control, HeLa [5] | IC50 [5] [µM] | Cell Viability, % of Control, MCF-7 [6] | lipid peroxide levels in CoCl2-treated HEK-293 cells [7] | decrease of MCF-7 cell viability (MCF-7 cells; doxorubicin alone at 0.1 µM) [%] | decrease of MCF-7 cell viability (MCF-7 cells; doxorubicin alone at 1 µM)
CC(=O)[C@@H]1[C@H]2CC[C@@](C)(O)C[C@@H]2C=C[C@@]1(C)O [Compound 5, zosteropenilline O] | 35.3 ± 1.16 | 0 | 0 | 85.64 ± 1.85 % of Control | 91.20 ± 3.37 % of Control | 37.12 ± 3.85 % of Control | 82.5 | 77.40 ± 2.73 % of Control | significantly decreased | – | –
C[C@H]1CC[C@H]2[C@@H](C=C[C@@](C)(O)[C@@H]2C(=O)CCO)[C@@H]1O [Compound 13, pallidopenilline A] | 0 | 0 | 15.5 ± 1.35 | 89.76 ± 3.31 % of Control | 89.76 ± 3.31 % of Control | 71.85 ± 3.02 % of Control | – | 95.05 ± 1.51 % of Control | – | – | –
CC1CCC2C(C1)C(Cl)C(O)C(C)(O)C2C(=O)CCO (stereo not shown) [Compound 10, zosteropenilline S] | 0 | 0 | 15.7 ± 0.36 | 98.10 ± 1.15 % of Control | 85.98 ± 2.13 % of Control | 68.69 ± 6.21 % of Control | – | 84.85 ± 4.90 % of Control | – | – | –
C[C@H]1CC[C@H]2C(=C[C@@H](O)[C@@](C)(O)[C@@H]2C(=O)CCO)C1 [Compound 9, zosteropenilline R] | 12 ± 1.14 | 0 | 11.7 ± 1.71 | 96.45 ± 7.64 % of Control | 96.44 ± 7.63 % of Control | 79.14 ± 6.36 % of Control | – | 79.64 ± 1.67 % of Control | significantly decreased | – | –
CC(=O)C1C2CCC(C)C(O)C2C=CC1(C)O (stereo not shown) [Compound 7, zosteropenilline Q] | 19.2 ± 3.12 | 0 | 29.9 ± 4.5 | 80.00 ± 0.99 % of Control | 88.70 ± 1.10 % of Control | 80.80 ± 3.25 % of Control | – | 76.23 ± 4.53 % of Control | – | – | –
COc1cccc2c1C(=O)c1c(O)c3c(c(O)c1C2=O)C[C@@](O)(C(=O)CO)C[C@@H]3O[C@H]1C[C@H](N)[C@H](O)[C@H](C)O1 [doxorubicin, reference compound] | – | – | – | – | – | – | – | – | – | 30 | approximately 60%
C[C@H]1C=C[C@H]2[C@H](O)[C@@H](C)CC[C@@H]2[C@H]1C(=O)CCO [Compound 8, 13-dehydroxypallidopenilline A] | 0 | 0 | 19.9 ± 1.82 | 86.10 ± 2.24 % of Control | 83.60 ± 1.81 % of Control | 72.66 ± 2.49 % of Control | – | 81.21 ± 5.56 % of Control | – | – | –
CC1=CC(O)C2CC(C)(O)CCC2C1C(=O)CCO (stereo not drawn) [Compound 2, 11-epi-8-hydroxyzosteropenilline M] | 6.12 ± 1.89 | 0 | 0 | 90.98 ± 2.82 % of Control | 90.98 ± 2.82 % of Control | 44.12 ± 5.13 % of Control | 87.3 | 57.46 ± 1.82 % of Control | – | – | –
